PMC11225352, “A multicenter, randomized, double-blind, placebo-controlled ascending dose study to evaluate the safety, tolerability, pharmacokinetics (PK) and pharmacodynamic (PD) effects of Posiphen in subjects with early Alzheimer’s Disease” (Alzheimer's Research & Therapy, 2024)
Marks after values point to notes of the source that are not given here.

Key:
[1] = CSF pharmacokinetics of Posiphen and its N1 and N8 metabolites (lumbar catheter sampling, LC-MS); type: in vivo, human; settings: for mean levels averaged over 24 h of CSF sampling: after 21–23 days, early AD
Excerpt: (§1) For the confinement visit, subjects arrived in the early morning after an overnight fast. Physical and neurological examination, vital signs, and assessment of compliance were completed and blood was drawn for safety laboratory tests. An intravenous line and a second line for repeated blood draw were placed. To sample CSF, the intrathecal space was accessed using a Perifix 18G Touhy Epidural Needle (90 mm), and a Polyamide Epidural Catheter (20G Closed Tip) was inserted and fixed in place by an Anesthesiologist. Participants received the last day’s dosing of study drug or placebo. Initial blood and CSF samples were drawn, intravenous infusion of ^13C6-leucine was started and continued for 9 h, during which time subjects received a low leucine diet. Blood and CSF were sampled every 2 h for 36 h. After 36 h, intravenous lines and the CSF catheter were removed, vital signs were measured, physical exam performed, and blood and CSF were sent for routine laboratory studies. […] If postural headache was present, a blood patch was performed. Once stable, participants underwent a brief exam and vital sign check and were discharged. They received a phone call 24 h after discharge to check on their wellbeing.
(§2) For biochemical analysis to derive data for SILK, ^13C6-leucine was analyzed in plasma and CSF by mass spectrometry, and Aβ peptides in CSF were analyzed by immunoprecipitation-mass spectrometry (IP-MS) as previously described, by C2N Diagnostics (St Louis, MO). CSF levels of sAPPα, sAPPβ, Aβ38, 40 and 42 were analyzed by the ADCS Biomarker Core using Mesoscale Discovery (MSD) electrochemiluminescent assays (Mesoscale Discovery, Rockville, MD). Levels of Posiphen and its N1 and N8 metabolites in plasma and CSF were measured by Charles River Laboratories (Montreal, CA) by high-performance liquid chromatographic mass spectrometry, with use of deuterated Posiphen (procured by Charles River Laboratories) as an internal standard.
(§3) A prespecified Statistical Analysis Plan (SAP) was prepared and finalized before the database lock occurred. For safety and tolerability, frequencies of adverse events, serious adverse events and laboratory abnormalities between the participants across the three groups are compared, using Pearson’s χ [2] or ANOVA, as appropriate. Plasma concentration-time data are analyzed by non-compartmental methods using WinNonlin version 6.2.1 or greater. Calculations are based on the actual sampling times recorded during the study. For PK analysis, only the subjects receiving Posiphen are included.
(§4) Noncompartmental pharmacokinetic parameters were estimated using Phoenix WinNonlin v8.3 (Certara, Princeton, NJ). Levels and parameters (Cmax, AUC) of posiphen, n-1 and n-8 metabolites were highly correlated in plasma and CSF. For the BID and TID doses the expected post dose plasma peaks appeared attenuated.

[2] = Plasma pharmacokinetics of Posiphen and its N1 and N8 metabolites (LC-MS, non-compartmental); type: in vivo, human; settings: for AUC0 − 24 in plasma, dose proportionality: between once daily and twice daily dosing; for mean levels averaged over 24 h of CSF sampling / AUC0 − 24 / Cmax / Tmax: plasma; for mean levels averaged over 24 h of CSF sampling: after 21–23 days, early AD
Excerpt: as §1, §2, §3, §4

Aβ = test system: Aβ; parameters: method as in PMID 24828079; settings: mice and cognitively normal humans (aged 18–50), single dose of 60 mg; cited from earlier work
[3] = 60 mg BID (n = 5), geometric mean (% geometric CV)
[4] = 60 mg BID (n = 5), median (min-max)
[5] = 60 mg daily (n = 4; N1: only one participant measurable), geometric mean (% geometric CV)
[6] = 60 mg daily (n = 4; N1: only one participant measurable), median (min-max)
[7] = 60 mg daily (n = 4), geometric mean (% geometric CV)
[8] = 60 mg daily (n = 4), median (min-max)

SMILES	mean levels averaged over 24 h of CSF sampling ([1]; 60 mg (n = 5)) [ng/mL]	mean levels averaged over 24 h of CSF sampling ([1]; 60 mg BID (n = 5)) [ng/mL]	AUC0 − 24 [1, 3]	Cmax [1, 3]	Tmax [1, 4]	mean levels averaged over 24 h of CSF sampling ([1]; 60 mg TID (n = 1)) [ng/mL]	AUC0 − 24 [1, 5]	Cmax [1, 5]	Tmax [1, 6]	AUC0 − 24 in plasma, dose proportionality [2]	mean levels averaged over 24 h of CSF sampling ([2]; 60 mg BID (n = 5)) [ng/mL]	AUC0 − 24 [2, 3]	Cmax [2, 3]	Tmax [2, 4]	AUC0 − 24 ([2]; 60 mg TID (n = 1)) [ng·h/mL]	Cmax ([2]; 60 mg TID (n = 1)) [ng/mL]	Tmax ([2]; 60 mg TID (n = 1)) [h]	mean levels averaged over 24 h of CSF sampling ([2]; 60 mg TID (n = 1)) [ng/mL]	AUC0 − 24 [2, 7]	Cmax [2, 7]	other results
CN1c2ccc(OC(=O)Nc3ccccc3)cc2[C@]2(C)CCN[C@H]12 [N1]	0.02 ± 0.04	0.28 ± 0.30	8.75 (83.50) hr*ng/mL	0.90 (31.32) ng/mL	12 (4–20) hr	0.00	1.33* hr*ng/mL	0.66* ng/mL	4* hr	increased approximately proportionally	3.02 ± 1.40	65.06 (58.61) hr*ng/mL	6.96 (32.01) ng/mL	12 (2–20) hr	60.18	5.48	2	2.51	36.60 (19.24) hr*ng/mL	5.43 (21.98) ng/mL	Tmax [2, 8]: 2 (2–4) hr; mean levels averaged over 24 h of CSF sampling ([2]; 60 mg once daily (n = 5)): 1.29 ± 0.77 ng/mL
CN1CC[C@]2(C)c3cc(OC(=O)Nc4ccccc4)ccc3NC12 (stereo partly drawn) [N8]	0.35 ± 0.26	0.77 ± 0.43	17.88 (58.47) hr*ng/mL	1.41 (39.33) ng/mL	12 (4–20) hr	0.15	8.91 (47.91) hr*ng/mL	1.01 (14.14) ng/mL	4 (2–8) hr	increased approximately proportionally	5.04 ± 1.80	113.65 (44.01) hr*ng/mL	10.01 (27.79) ng/mL	12 (2–20) hr	80.40	5.41	2	3.35	66.02 (20.83) hr*ng/mL	6.81 (25.10) ng/mL	AUC0 − 24 ([1]; 60 mg TID (n = 1)): 6.26 ng·h/mL; Cmax ([1]; 60 mg TID (n = 1)): 0.62 ng/mL; Tmax ([1]; 60 mg TID (n = 1)): 12 h; Tmax [2, 8]: 3 (3–4) hr; mean levels averaged over 24 h of CSF sampling ([2]; 60 mg once daily (n = 5)): 2.25 ± 1.36 ng/mL
CN(C)CCCC1(c2ccc(F)cc2)OCc2cc(C#N)ccc21 (stereo not drawn) [citalopram]																					Aβ production (SILK) (Aβ): decreased
